According to patent US10100285B2, “Ex vivo proliferation of epithelial cells” (PROPAGENIX INC., priority 2015, dated 2018):
“Also recorded” adds a separate entry of the source. Where a name gives a salt, the structure may show the parent alone. Read-outs that look alike come from different tables or passages of the source.

Tests used:
[1] = tested on: late passage prostate epithelial cells; format: cell-based; conditions: for increase of total cell number after 5 days: KSFM plus individual compound alone at 5 μM; for increase of total cell number after 5 days / cell proliferation when used together with A83-01: 1 μM, 0.2 μM; for cell proliferation when used together with A83-01: KSFM supplemented with A83-01 plus compound at 5 μM, 5 days
Excerpt: As described above, these include Rho kinase inhibitors (i.e., Rho-associated protein kinase inhibitors) such as Y-27632, SR 3677, GSK 429286 and Thiazovivin; PAK1 inhibitor IPA-3; and myosin II inhibitor (i.e., non-muscle myosin II (NM II) inhibitor) Blebbistatin.

[2] = tested on: prostate epithelial cells; assay: Plating efficiency of prostate epithelial cells in KSFM; format: cell-based, human
Excerpt: (§1) In this example, epithelial cell plating efficiency, i.e., number of cells that efficiently attach to the cell culture surfaces, continue to divide and grow into colonies, was examined under various conditions.
(§2) However, those few cells that did attach continued to proliferate.
Many prostate epithelial cells attached to regular tissue culture surface in the presence of both A83-01 and Y-27632 at day 2 after plating.

[3] = tested on: human telomerase reverse transcriptase (hTERT) expression in bronchial epithelial cells; assay: hTERT expression by quantitative real-time PCR in bronchial epithelial cells; format: cell-based; conditions: KSFM
Protocol: (§3) Total RNA was prepared using TRIzol® Plus RNA Purification Kit (Life Technologies, 12183-555) and PureLink® RNA Mini Kit (Life Technologies, 12183018A), following the manufacturer's instructions. One hundred nanogram total RNA was used for the determination of human telomerase reverse transcriptase (hTERT) expression using the TaqMan® RNA-to-CT™ 1-Step Kit (Life Technologies, 4392938), following the protocol provided by the supplier. hTERT primers and Taqman probe used were as follows: forward primer, 5′-[…]-3′ (SEQ ID NO:1), reverse primer, 5′-[…]-3′ (SEQ ID NO:2) and Taqman probe, 5′-[…]-3′ (SEQ ID NO:3).
(§4) In this example, hTERT expression in epithelial cells was assessed in the presence of an ALK5 inhibitor, a Rho kinase inhibitor (i.e., a Rho-associated protein kinase inhibitor), or both. Expression of hTERT gene was examined by quantitative real-time PCR in bronchial epithelial cells and prostate epithelial cells. The cells were treated with an ALK5 inhibitor, A83-01, or a Rho kinase inhibitor (i.e., a Rho-associated protein kinase inhibitor), Y-27632, or both inhibitors, at different passages in KSFM.

[4] = tested on: human telomerase reverse transcriptase (hTERT) expression in prostate epithelial cells; assay: hTERT expression by quantitative real-time PCR in prostate epithelial cells; format: cell-based; conditions: KSFM
Protocol: as §3, §4
As shown in FIG. 6A and FIG. 6B, prostate epithelial cells at early passage (p2) expressed low level of hTERT, which quickly diminished at passage 3 and became non-detectable by passage 5.

[5] = tested on: prostate epithelial cells; assay: Growth (population doublings) of prostate epithelial cells; format: cell-based, human; conditions: KSFM; for total population doublings: serial culture (FIG. 14)
Protocol: (§5) Epithelial cells (prostate epithelial cells and bronchial epithelial cells) were plated at 3,000-10,000 viable cells/cm^2 in tissue culture vessels, using culture medium as indicated in Examples 2 to 5 and FIGS. 1 to 17, and incubated at 37° C. with 5% CO2. The medium was changed every 2 or 3 days. Cells were sub-cultured using standard trypsinization method when they were about 70-90% confluent. Total cell number was determined using the Countess II Automated Cell Counter (Life Technologies, AMQAX1000) following manufacturer's instructions.
(§6) A formula used for the calculation of population doublings (PD) is presented in Equation A: n=3.32*(log Y−log I)+X Equation A where n=the final PD number at end of a given subculture, Y=the cell yield at the time of harvesting, I=the cell number used as inoculum to begin that subculture, and X=the doubling level of the inoculum used to initiate the subculture being quantitated.
(§7) Prostate and bronchial epithelial cells were grown in KSFM in the presence of Rho kinase inhibitor (i.e., Rho-associated protein kinase inhibitor) Y-27632.
To examine the effects of additional in vitro and/or ex vivo growth conditions, prostate epithelial cells were grown in KSFM or PrEGM in the presence of media alone, ALK5 inhibitor A83-01, Rho kinase inhibitor (i.e., Rho-associated protein kinase inhibitor) Y-27632, or both (with or without collagen).

[6] = tested on: bronchial epithelial cells; assay: Growth (population doublings) of bronchial epithelial cells; format: cell-based, human; conditions: KSFM; for total population doublings: serial culture (FIG. 15)
Protocol: as §5, §6, §7
Similar to the experiment above, bronchial epithelial cells were grown in KSFM in the presence of media alone, ALK5 inhibitor A83-01, Rho kinase inhibitor (i.e., Rho-associated protein kinase inhibitor) Y-27632, or both (with or without collagen).

[7] = tested on: bronchial epithelial cells; assay: Plating efficiency of bronchial epithelial cells in KSFM; format: cell-based, human
Excerpt: as §1, §2
Many bronchial epithelial cells attached to regular tissue culture surface in the presence of both A83-01 and Y-27632 at day 2 after plating.

[8] = tested on: human foreskin keratinocytes (HFK) and human bronchial epithelial cells (HBEC); assay: Cell growth with increasing concentrations of isoproterenol; format: cell-based; conditions: added to KSFM plus 1 μM A83-01 and 5 μM Y-27632, six days
Protocol: In a further investigation, epithelial cell growth was assessed in the presence of a beta-adrenergic agonist (i.e., a beta-adrenergic receptor agonist). Human foreskin keratinocytes (HFK) and human bronchial epithelial cells (HBEC) were cultured in KSFM plus 1 μM A83-01 and 5 μM Y-27632, supplemented with increasing concentrations of isoproterenol (a beta-adrenergic receptor agonist that increases cytosolic cAMP levels). Cell numbers were counted after six days to calculate cell growth relative to control.

[9] = regular (uncoated) tissue culture surface
[10] = added together with A83-01, regular tissue culture surface
[11] = used alone, continuous use (FIG. 13)

With `Cc1ccc2c(c1)C(=O)C1(O)CCN(c3ccccc3)C1=N2` (racemic) [Blebbistatin, (±)-1,2,3,3a-Tetrahydro-3a-hydroxy-6-methyl-1-phenyl-4H-pyrrolo[2,3-b]quinolin-4-one] the “increase of total cell number after 5 days” value (“increase of total cell number” below) [1] was “did not increase proliferation” and the “cell proliferation when used together with A83-01” value (“cell proliferation” for short) [1] was “synergistically increased”.
For `Cc1cccc(-c2nn(C(=S)Nc3ccccc3)cc2-c2ccnc3ccccc23)n1` [A83-01, 3-(6-Methyl-2-pyridinyl)-N-phenyl-4-(4-quinolinyl)-1H-pyrazole-1-carbothioamide], the plating efficiency [2, 9] was “interfered with prostate epithelial cell plating efficiency”, the hTERT expression ([3]; early passage (p3)) was “robustly induced hTERT expression” and the hTERT expression ([3]; late passage (p6)) was “sustained measurable hTERT expression”. The hTERT expression ([4]; early passage (p2)) was “quickly induced hTERT expression”, the hTERT expression ([4]; late passage (p5)) was “sustained measurable hTERT expression” and the total population doublings [5] was “also increased the total population doublings”. For the same compound, the total population doublings [6] was “also increased the total population doublings”, the “increase of total cell number” value [1] was “pronounced increase of total cell number; also recorded: significantly increased” and the plating efficiency [7, 9] was “interfered with bronchial epithelial cell plating efficiency”.
In the case of `CC1=C(C(=O)Nc2cc3cn[nH]c3cc2F)C(c2ccc(C(F)(F)F)cc2)CC(=O)N1` (stereo not shown) [GSK 429286, 4-[4-(Trifluoromethyl)phenyl]-N-(6-Fluoro-1H-indazol-5-yl)-2-methyl-6-oxo-1,4,5,6-tetrahydro-3-pyridinecarboxamide], the “increase of total cell number” value [1] is reported as “slight increase of total cell numbers” and the “cell proliferation” value [1] is reported as “synergistic effect”.
`O=C(NC1CCOCC1)c1ccc(-c2cc(-c3c[nH]nc3-c3ccccn3)ccn2)cc1` [GW 788388, 4-[4-[3-(2-Pyridinyl)-1H-pyrazol-4-yl]-2-pyridinyl]-N-(tetrahydro-2H-pyran-4-yl)-benzamide] was tested, and the “increase of total cell number” value [1] was “pronounced increase of total cell number” and the “cell proliferation” value [1] was “little extra increase”.
In the case of `Oc1ccc2ccccc2c1SSc1c(O)ccc2ccccc12` [IPA-3, 1,1′-Dithiodi-2-naphthol], the “increase of total cell number” value [1] is reported as “did not increase proliferation”, the “cell proliferation” value [1] is reported as “synergistically increased” and the cell death ([1]; highest concentration tested (5 μM)) is reported as “nearly total cell death”.
In the case of `Cc1cccc(-c2n[nH]cc2-c2ccc3ncccc3n2)n1` [RepSox, 2-(3-(6-Methylpyridine-2-yl)-1H-pyrazol-4-yl)-1,5-naphthyridine], the “increase of total cell number” value [1] is reported as “pronounced increase of total cell number” and the “cell proliferation” value [1] is reported as “little extra increase”.
`NC(=O)c1ccc(-c2nc(-c3ccc4c(c3)OCO4)c(-c3ccccn3)[nH]2)cc1` [SB 431542, 4-[4-(1,3-benzodioxol-5-yl)-5-(2-pyridinyl)-1H-imidazol-2-yl]benzamide] was tested, and the “increase of total cell number” value [1] was “pronounced increase of total cell number” and the “cell proliferation” value [1] was “little extra increase”.
In the case of `CN(C)CCOc1cc(-c2cn[nH]c2)ccc1NC(=O)C1COc2ccccc2O1` (stereo not shown) [SR 3677, N-[2-[2-(Dimethylamino)ethoxy]-4-(1H-pyrazol-4-yl)phenyl-2,3-dihydro-1,4-benzodioxin-2-carboxamidedi hydrochloride], the “increase of total cell number” value [1] is reported as “slight increase of total cell numbers” and the “cell proliferation” value [1] is reported as “synergistic effect”.
In the case of `O=C(NCc1ccccc1)c1csc(Nc2ccncn2)n1` [Thiazovivin, N-Benzyl-[2-(pyrimidin-4-yl)amino]thiazole-4-carboxamide], the “increase of total cell number” value [1] is reported as “slight increase of total cell numbers” and the “cell proliferation” value [1] is reported as “synergistic effect”.
For `C[C@@H](N)[C@H]1CC[C@H](C(=O)Nc2ccncc2)CC1.Cl.Cl` [Y-27632, (R)-(+)-trans-4-(1-Aminoethyl)-N-(4-Pyridyl)cyclohexanecarboxamide dihydrochloride], the plating efficiency [2, 10] was “ameliorated the low plating efficiency”, the hTERT expression ([3]; early passage (p3)) was “slightly induced hTERT expression” and the hTERT expression ([3]; late passage (p6)) was “non-detectable”. The hTERT expression ([4]; early passage (p2)) was “induced hTERT expression”, the hTERT expression ([4]; late passage (p5)) was “non-detectable” and the “population doubling reached shortly before senescence” value [5] was greater than 20 PD. The total population doublings [5] was “slightly increased the total population doublings”, the “proliferation at late passage” value [5, 11] was “did not promote the proliferation” and the total population doublings [6] was “slightly increased the total population doublings”. For the same compound, the “proliferation at late passage” value [6, 11] was “did not promote the proliferation”, the “increase of total cell number” value ([1]; dihydrochloride) was “slight increase of total cell numbers; also recorded: slight increase of cell proliferation” and the “cell proliferation” value [1] was “synergistically increased”. For the same compound, the plating efficiency [7, 10] was “ameliorated the low plating efficiency”.
For `CC(C)NCC(O)c1ccc(O)c(O)c1` (stereo not shown) [isoproterenol], the “cell growth relative to control” value [8] was “further increased epithelial cells growth”.
